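A five-concentration, 48-hour dose response in 96-well plates underlies each endpoint, interpolated linearly between surrounding concentrations. GI50 marks 50% less growth. TGI: total growth inhibition.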 Bounds are passed on as bounds.

Holding throughout (assay): NCI anticancer screen, dose series, 48 h
Assay [1] concerns A549 NSCLC.
The subject of assay [2] is ACHN renal.
Assay [3] has as its system CCRF-CEM leukemia.
The test system of assay [4] is EKVX NSCLC.
The test system of assay [5] is HCT-116 colon.
The test system of assay [6] is HCT-15 colon.
For assay [7], the system named is HOP-62 NSCLC.
Assay [8] relates to LOX IMVI melanoma.
Assay [9] relates to M14 melanoma.
Assay [10] deals with MALME-3M melanoma.
Assay [11] concerns RPMI-8226 leukemia.
Assay [12] deals with SK-MEL-5 melanoma.
For assay [13], the system named is SR leukemia.
The subject of assay [14] is SW-620 colon.
Assay [15] deals with TK-10 renal.
For assay [16], the system named is UACC-62 melanoma.
For assay [17], the system named is UACC-257 melanoma.

Regarding `Cc1ccc(S(=O)(=O)c2ccc(C)cc2[N+](=O)[O-])c([N+](=O)[O-])c1`, the TGI in [1], in assay [2], in assay [3], in [4], in assay [5] and in assay [6] was > 100 µM throughout. Besides, the TGI in [7], in assay [8], in assay [9], in assay [10], in assay [11] and in assay [12] was > 100 µM throughout. Also, the TGI in [13], in [14], in [15] and in assay [16] was > 100 µM in each case.

Regarding `O=C1CCC(=O)c2ccccc2N1`, the TGI in assay [1], in [2], in assay [3], in assay [4], in assay [5] and in assay [6] was > 100 µM each time. For the same molecule, the TGI in assay [7], in assay [8], in [9], in assay [10], in [11] and in assay [12] was > 100 µM throughout. In addition, the TGI in assay [14], in assay [15] and in assay [17] was > 100 µM in each case.

Turning to `N#CCCC(C#N)(C#N)CCC#N`, the TGI in assay [1], in [2], in assay [4], in [5], in assay [6] and in assay [7] was > 100 µM each time. Moreover, the TGI in assay [8], in assay [9], in assay [10], in assay [11], in assay [12] and in [13] was > 100 µM each time. In addition, the TGI in assay [14], in assay [15], in assay [17] and in assay [16] was > 100 µM in each case.

Turning to `COP12(OC)NC(=O)OC1(C(F)(F)F)c1ccccc1O2` (stereo unspecified), the TGI in [1], in assay [2], in assay [3], in assay [5], in assay [6] and in assay [8] was > 100 µM throughout. Further, the TGI in assay [9], in assay [10], in assay [12], in assay [15], in assay [17] and in assay [16] was > 100 µM throughout.

`CN(C)CC1(Cc2ccccc2)CC/C(=C\c2ccccc2)C1=O` (stereo unspecified): the TGI was > 100 µM in [1]; > 100 µM in assay [2]; 59.9 µM in [3]; > 100 µM in [5]; 42.1 µM in assay [6]; > 100 µM in assay [7]. Moreover, the TGI in assay [8] was 74.9 µM; in [9], > 100 µM; in [10] it was > 100 µM; in assay [11], 55.7 µM; in [12], 64.3 µM; in assay [13] it was 60.4 µM. The TGI in assay [14] is 60.3 µM; in [15] it was > 100 µM; in assay [17], > 100 µM; in [16], > 100 µM.

As to `CCOC(=O)/C(C1=NCCN1C)=C(\O)c1ccccc1`, the TGI in assay [1], in assay [2], in [3], in [4], in assay [5] and in assay [6] was > 100 µM throughout. The TGI in assay [7], in [8], in [9], in assay [10], in assay [11] and in assay [12] was > 100 µM in each case. Further, the TGI in assay [13], in assay [14], in assay [17] and in [16] was > 100 µM throughout.

`O=c1[nH]c(=O)n([C@H]2C[C@@H](CO)[C@@H](O)C2)cc1I`: the TGI in assay [1], in assay [2], in [3], in assay [4], in assay [5] and in [6] was > 100 µM each time. Also, the TGI in assay [7], in assay [8], in assay [9], in assay [10], in assay [11] and in assay [12] was > 100 µM in each case. In addition, the TGI in assay [14], in [15], in [17] and in assay [16] was > 100 µM throughout.

`C/C=C1\Oc2ccc(OC)cc2S1(=O)=O`: the TGI in assay [1], in [2], in assay [3], in assay [4], in [5] and in assay [6] was > 100 µM in each case. Moreover, the TGI in [7], in assay [8], in [9], in assay [10], in assay [11] and in assay [12] was > 100 µM each time. Further, the TGI in [13], in assay [14], in assay [15], in assay [17] and in assay [16] was > 100 µM throughout.

`O=c1cccccc1[O-].O=c1cccccc1[O-].O=c1cccccc1[O-].[Nd+3]`: the TGI in assay [1] was > 100 µM; in assay [2], > 100 µM; in [3] it was > 100 µM; in assay [4], > 100 µM; in assay [5] it was 68.4 µM; in assay [6], > 100 µM. For the same molecule, the TGI was 95.3 µM in [7]; > 100 µM in assay [8]; 87 µM in [9]; > 100 µM in assay [10]; > 100 µM in assay [11]; > 100 µM in assay [12]. Besides, the TGI was > 100 µM in [14], > 100 µM in assay [15], > 100 µM in [17] and 88 µM in assay [16]. In addition, the GI50 in assay [7] was 32 µM.

In the case of `c1cc2c(cc1C1OCC3C(c4ccc5c(c4)OCO5)OCC13)OCO2` (stereo unspecified), the TGI in assay [1], in [2], in assay [3], in [4], in assay [5] and in [6] was > 100 µM in each case. Moreover, the TGI was > 100 µM in assay [7]; > 100 µM in assay [8]; > 100 µM in [9]; > 100 µM in assay [10]; 83.7 µM in assay [12]; > 100 µM in assay [14]. The TGI in assay [15], in [17] and in [16] was > 100 µM each time.

On to `Nc1c(F)c(F)c2c(c1F)N(CCCCCl)c1ccccc1S2`, for which the TGI in [1], in [2], in [3], in [5], in assay [6] and in [7] was > 100 µM throughout. The TGI in assay [8], in assay [9], in assay [10], in assay [11], in assay [12] and in assay [13] was > 100 µM in each case. Moreover, the TGI in assay [14], in assay [15], in [17] and in [16] was > 100 µM in each case.

Regarding `C#CN1C(=O)c2c(c(-c3ccccc3)c(-c3ccc(Oc4ccc(-c5c(-c6ccccc6)c6c(c(-c7ccccc7)c5-c5ccccc5)C(=O)N(C#C)C6=O)cc4)cc3)c(-c3ccccc3)c2-c2ccccc2)C1=O`, the TGI in assay [1], in assay [2], in assay [3], in assay [4], in [5] and in [6] was > 100 µM throughout. The TGI in assay [7], in [8], in assay [9], in [10], in assay [11] and in assay [12] was > 100 µM throughout. Further, the TGI in assay [14], in assay [15], in [17] and in assay [16] was > 100 µM in each case.

Take `COc1cc(C2C(C(=O)NCc3ccccc3)=C(C)NC(C)=C2C(=O)NCc2ccccc2)ccc1O`: the TGI was > 100 µM in assay [1]; > 100 µM in assay [2]; 98.3 µM in assay [3]; > 100 µM in [4]; > 100 µM in assay [5]; > 100 µM in assay [6]. For the same molecule, the TGI was > 100 µM in assay [8]; > 100 µM in assay [9]; > 100 µM in assay [10]; 73.6 µM in assay [11]; > 100 µM in assay [12]; 54.4 µM in assay [13]. Also, the TGI in [14], in assay [15], in [17] and in [16] was > 100 µM each time.

For the molecule `COC(=O)C(=O)C(C(=O)OC)C(=O)C(=O)Nc1cc(Cl)c(C)cc1S(=O)(=O)O` (stereo unspecified), the TGI in assay [1], in assay [2], in assay [3], in assay [4], in [5] and in [6] was > 100 µM each time. For the same molecule, the TGI in assay [7], in [8], in assay [9], in assay [10], in assay [12] and in assay [13] was > 100 µM in each case. The TGI in [14], in assay [15], in assay [17] and in assay [16] was > 100 µM throughout.

Take `O=C1C(Cl)C(c2ccc(O)cc2)N1n1cnc2ccccc2c1=O` (stereo unspecified): the TGI in assay [1] was > 100 µM; in [2] it was 25.6 µM; in assay [3], > 100 µM; in assay [4], > 100 µM; in assay [5] it was 33 µM; in assay [6], > 100 µM. For the same molecule, the TGI is > 100 µM in [7]; 45.3 µM in [8]; 96.8 µM in assay [9]; > 83.9 µM in assay [10]; 57.7 µM in [11]; > 100 µM in assay [12]. In addition, the TGI in assay [13] is 69.8 µM; in [14], 47.8 µM; in assay [15], > 100 µM; in assay [17] it was > 100 µM; in [16], 48.4 µM.

In the case of `CN1CCCS/C1=C1/SC(=S)N(c2ccccc2)C1=O`, the TGI in [1], in assay [2], in assay [3], in assay [4], in [5] and in assay [6] was > 100 µM throughout. Also, the TGI in assay [7], in assay [8], in [9], in [10], in assay [11] and in assay [12] was > 100 µM in each case. For the same molecule, the TGI in [13], in assay [14], in [15], in assay [17] and in assay [16] was > 100 µM in each case.

As for `O=C(O)C12C3CCC(C3)C1(C(=O)O)C1CCC2C1` (stereo unspecified), the TGI was > 100 µM in assay [1]; > 100 µM in [2]; 95 µM in assay [3]; > 100 µM in assay [4]; > 100 µM in assay [5]; > 100 µM in assay [6]. The TGI in [7] was > 100 µM; in assay [8], 58.1 µM; in assay [9], > 100 µM; in [10], > 100 µM; in [11], 48.4 µM; in assay [12], > 100 µM. Further, the TGI was > 100 µM in assay [13]; 34.2 µM in [14]; > 100 µM in [15]; > 100 µM in [17]; > 100 µM in assay [16].

Values taken from PubChem BioAssay (NCI).
